This is an account of results in PubChem BioAssay AID330 (DTP/NCI, 2004).

The assay deals with P388 leukemia ip, CD2F1 mice, survival T/C. The experiment in a line: NCI In Vivo Anticancer Drug Screen. Data for tumor model P388 Leukemia (intraperitoneal) in CD2F1 (CDF1) mice. The settings on record: endpoint: median survival time, higher = longer survival. In outline: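 Mice carrying the transplanted tumor received test compound or vehicle. Survival was recorded in each group, and the value is the treated-group measurement divided by that of the vehicle-treated control group.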

Setting [1] is: dose: 50.0 mg/kg/injection, schedule: Q01DX009 (ip), vehicle: Klucel (hydroxypropylcellulose) (HPC).
[2] abbreviates: dose: 100.0 mg/kg/injection, schedule: Q01DX009 (ip), vehicle: Klucel (hydroxypropylcellulose) (HPC).
Setting [3] is: dose: 50.0 mg/kg/injection, schedule: Q01DX009 (ip), vehicle: saline.
[4] abbreviates: dose: 50.0 mg/kg/injection, schedule: Q01DX005 (ip), vehicle: saline with Tween-80.
The mark [5] stands for this setting: dose: 100.0 mg/kg/injection, schedule: Q01DX005 (ip), vehicle: saline with Tween-80.

Where “and” joins values, the source holds several entries; their conditions need not be identical. Equal values may be shown once. Inconclusive results and toxic doses are left out.

On to `COc1cccc2c1C(=O)c1c(O)c3c(c(O)c1C2=O)C[C@@](O)(/C(C)=N/NC(=O)c1ccccc1)C[C@@H]3OC1CC(N)C(O)C(C)O1` (stereo not given in full), for which the T/C is, setting by setting: (dose: 0.12 mg/kg/injection, schedule: Q01DX009 (ip), vehicle: water) 99 % of control and 104 % of control and 89 % of control; (dose: 0.5 mg/kg/injection, schedule: Q01DX005 (ip), vehicle: suspension in saline) 120 % of control; (dose: 0.5 mg/kg/injection, schedule: Q01DX005 (iv), vehicle: suspension in saline) 109 % of control; (dose: 0.65 mg/kg/injection, schedule: Q01DX009 (ip), vehicle: saline) 168 % of control; (dose: 1.0 mg/kg/injection, schedule: Q01DX005 (iv), vehicle: suspension in saline) 110 % of control; (dose: 1.0 mg/kg/injection, schedule: Q01DX009 (ip), vehicle: other) 150 % of control. Also, the T/C was 172 % of control (dose: 1.08 mg/kg/injection, schedule: Q01DX009 (ip), vehicle: saline); 177 % of control (dose: 1.56 mg/kg/injection, schedule: Q04DX003 (ip), vehicle: saline); 190 % of control (dose: 1.8 mg/kg/injection, schedule: Q01DX009 (ip), vehicle: saline); 108 % of control (dose: 2.0 mg/kg/injection, schedule: Q01DX005 (iv), vehicle: suspension in saline); 166 % of control (dose: 2.0 mg/kg/injection, schedule: Q01DX009 (ip), vehicle: other); 160 % of control (dose: 2.0 mg/kg/injection, schedule: Q04DX003 (ip), vehicle: water). Moreover, the T/C runs as follows: (dose: 3.0 mg/kg/injection, schedule: Q01DX009 (ip), vehicle: saline) 213 % of control; (dose: 3.0 mg/kg/injection, schedule: Q04DX003 (ip), vehicle: saline) 150 % of control; (dose: 3.0 mg/kg/injection, schedule: Q04DX003 (ip), vehicle: water) 115 % of control; (dose: 3.13 mg/kg/injection, schedule: Q04DX003 (ip), vehicle: saline) 176 % of control; (dose: 3.2 mg/kg/injection, schedule: Q01DX001 (ip), vehicle: water) 153 % of control; (dose: 3.24 mg/kg/injection, schedule: Q04DX003 (ip), vehicle: water) 153 % of control. For the same compound, the T/C is, setting by setting: (dose: 4.0 mg/kg/injection, schedule: Q01DX005 (ip), vehicle: saline) 181 % of control; (dose: 4.0 mg/kg/injection, schedule: Q01DX005 (iv), vehicle: saline) 104 % of control; (dose: 4.0 mg/kg/injection, schedule: Q01DX009 (ip), vehicle: other) 175 % of control; (dose: 4.2 mg/kg/injection, schedule: Q01DX001 (ip), vehicle: water) 158 % of control; (dose: 5.0 mg/kg/injection, schedule: Q01DX001 (ip), vehicle: saline) 168 % of control; (dose: 5.0 mg/kg/injection, schedule: Q04DX003 (ip), vehicle: saline) 163 % of control. The T/C was 157 % of control (dose: 5.3 mg/kg/injection, schedule: Q01DX009 (ip), vehicle: saline); 171 % of control (dose: 5.4 mg/kg/injection, schedule: Q04DX003 (ip), vehicle: water); 165 % of control (dose: 5.6 mg/kg/injection, schedule: Q01DX001 (ip), vehicle: water); 205 % of control (dose: 6.25 mg/kg/injection, schedule: Q04DX003 (ip), vehicle: saline); 177 % of control (dose: 7.5 mg/kg/injection, schedule: Q01DX001 (ip), vehicle: water); 163 % of control (dose: 8.0 mg/kg/injection, schedule: Q01DX001 (ip), vehicle: saline). Besides, the T/C by setting is: (dose: 8.0 mg/kg/injection, schedule: Q01DX005 (ip), vehicle: saline) 229 % of control; (dose: 8.0 mg/kg/injection, schedule: Q01DX005 (ip), vehicle: suspension in saline) 174 % of control; (dose: 8.0 mg/kg/injection, schedule: Q01DX005 (iv), vehicle: suspension in saline) 151 % of control; (dose: 8.0 mg/kg/injection, schedule: Q01DX009 (ip), vehicle: other) 189 % of control; (dose: 8.0 mg/kg/injection, schedule: Q01DX009 (ip), vehicle: saline) 90 % of control; (dose: 8.0 mg/kg/injection, schedule: Q04DX003 (ip), vehicle: saline) 163 % of control. Besides, the T/C was 116 % of control and 190 % of control and 215 % of control (dose: 8.0 mg/kg/injection, schedule: Q04DX003 (ip), vehicle: water); 90 % of control (dose: 8.3 mg/kg/injection, schedule: Q01DX009 (ip), vehicle: saline); 175 % of control (dose: 9.0 mg/kg/injection, schedule: Q04DX003 (ip), vehicle: water); 160 % of control (dose: 10.0 mg/kg/injection, schedule: Q01DX001 (ip), vehicle: clinical formulation); 181 % of control (dose: 10.0 mg/kg/injection, schedule: Q01DX001 (ip), vehicle: water); 164 % of control (dose: 12.0 mg/kg/injection, schedule: Q01DX001 (ip), vehicle: clinical formulation). The T/C reads like this: (dose: 12.5 mg/kg/injection, schedule: Q04DX003 (ip), vehicle: saline) 187 % of control; (dose: 13.3 mg/kg/injection, schedule: Q01DX001 (ip), vehicle: saline) 113 % of control; (dose: 13.3 mg/kg/injection, schedule: Q04DX003 (ip), vehicle: saline) 109 % of control; (dose: 14.0 mg/kg/injection, schedule: Q01DX001 (ip), vehicle: clinical formulation) 167 % of control; (dose: 16.0 mg/kg/injection, schedule: Q01DX001 (ip), vehicle: clinical formulation) 188 % of control; (dose: 16.0 mg/kg/injection, schedule: Q01DX005 (iv), vehicle: saline) 211 % of control. Further, the T/C was 180 % of control and 318 % of control (dose: 16.0 mg/kg/injection, schedule: Q04DX003 (ip), vehicle: water); 179 % of control (dose: 18.0 mg/kg/injection, schedule: Q01DX001 (ip), vehicle: clinical formulation); 95 % of control (dose: 22.2 mg/kg/injection, schedule: Q01DX001 (ip), vehicle: saline); 171 % of control (dose: 24.0 mg/kg/injection, schedule: Q04DX003 (ip), vehicle: water); 163 % of control and 233 % of control (dose: 32.0 mg/kg/injection, schedule: Q04DX003 (ip), vehicle: water); 117 % of control (dose: 48.0 mg/kg/injection, schedule: Q04DX003 (ip), vehicle: water). For the same compound, the T/C was 109 % of control and 114 % of control (dose: 64.0 mg/kg/injection, schedule: Q04DX003 (ip), vehicle: water); 89 % of control (dose: 96.0 mg/kg/injection, schedule: Q04DX003 (ip), vehicle: water).

As for `ClCOc1cc(Cl)c(OCCl)cc1Cl`, the T/C by setting is: under setting [1], 116 % of control; under setting [2], 113 % of control; (dose: 200.0 mg/kg/injection, schedule: Q01DX009 (ip), vehicle: Klucel (hydroxypropylcellulose) (HPC)) 101 % of control.

For `CCOC(=O)CC(=O)C(OC)OC`, the T/C reads like this: under setting [3], 106 % of control; (dose: 100.0 mg/kg/injection, schedule: Q01DX009 (ip), vehicle: saline) 105 % of control; (dose: 200.0 mg/kg/injection, schedule: Q01DX009 (ip), vehicle: saline) 102 % of control; (dose: 400.0 mg/kg/injection, schedule: Q01DX009 (ip), vehicle: saline) 98 % of control.

Take `O=C(Nc1ccccc1)Oc1ccc[nH]c1=O`: the T/C is, setting by setting: (dose: 25.0 mg/kg/injection, schedule: Q01DX009 (ip), vehicle: Klucel (hydroxypropylcellulose) (HPC)) 117 % of control and 122 % of control; (dose: 25.0 mg/kg/injection, schedule: Q01DX009 (ip), vehicle: saline) 113 % of control and 120 % of control; under setting [1], 117 % of control and 123 % of control; under setting [3], 118 % of control; under setting [2], 87 % of control.

`Cc1ccccc1N=C(CCl)Nc1ccccc1C`: the T/C is, setting by setting: under setting [4], 94 % of control; under setting [5], 99 % of control.

For `Cc1c2ccncc2c(CN(CCCl)CCCl)c2c3ccccc3n(C)c12`, the T/C reads like this: (dose: 20.0 mg/kg/injection, schedule: Q01DX005 (ip), vehicle: saline) 150 % of control and 160 % of control; (dose: 50.0 mg/kg/injection, schedule: Q01DX005 (ip), vehicle: saline) 118 % of control; (dose: 100.0 mg/kg/injection, schedule: Q01DX005 (ip), vehicle: saline) 182 % of control.

`c1ccc([C@H]2N[C@@H]2c2ccccn2)cc1`: the T/C under setting [4] is 106 % of control and the T/C under setting [5] is 93 % of control.
